Tests used:
[1] = refractive index (Na D-line) (dimensionless); xn = mol fraction of the nth substance listed; conditions: 102 kPa, Liquid, Standard Abbe refractometry
[2] = xn = mol fraction of the nth substance listed; conditions: 102 kPa, Liquid, Vibrating tube method

CC(C)(C)c1ccccc1 [(1,1-dimethylethyl)benzene] + C[Si]1(CCC(F)(F)F)O[Si](C)(CCC(F)(F)F)O[Si](C)(CCC(F)(F)F)O1
Conditions	mass density, 308.15 K [kg/m3]	mass density, 313.15 K [kg/m3]	mass density, 318.15 K [kg/m3]	mass density, 323.15 K [kg/m3]	refractive index, 308.15 K	refractive index, 313.15 K	refractive index, 318.15 K	refractive index, 323.15 K
[1], x2 = 0	–	–	–	–	1.48509	1.48256	1.48007	1.47754
[1], x2 = 0.0476	–	–	–	–	1.47051	1.46805	1.4656	1.46312
[1], x2 = 0.1	–	–	–	–	1.45684	1.45441	1.452	1.4496
[1], x2 = 0.15	–	–	–	–	1.44555	1.44313	1.44079	1.4384
[1], x2 = 0.2	–	–	–	–	1.4356	1.43327	1.43091	1.42856
[1], x2 = 0.25	–	–	–	–	1.42681	1.4245	1.42218	1.41985
[1], x2 = 0.2999	–	–	–	–	1.41901	1.41671	1.41444	1.41212
[1], x2 = 0.3499	–	–	–	–	1.41199	1.40972	1.40747	1.40521
[1], x2 = 0.3999	–	–	–	–	1.40568	1.40344	1.4012	1.39899
[1], x2 = 0.45	–	–	–	–	1.39992	1.3977	1.39552	1.3933
[1], x2 = 0.5	–	–	–	–	1.39466	1.39251	1.39033	1.38813
[1], x2 = 0.5498	–	–	–	–	1.38992	1.38774	1.38566	1.3834
[1], x2 = 0.6	–	–	–	–	1.38555	1.38337	1.38127	1.37906
[1], x2 = 0.6499	–	–	–	–	1.38151	1.37934	1.37726	1.37512
[1], x2 = 0.7001	–	–	–	–	1.37773	1.37562	1.37352	1.37141
[1], x2 = 0.75	–	–	–	–	1.37427	1.3722	1.3701	1.36801
[1], x2 = 0.7995	–	–	–	–	1.37106	1.36902	1.36693	1.36485
[1], x2 = 0.8499	–	–	–	–	1.36804	1.36599	1.36394	1.36193
[1], x2 = 0.8954	–	–	–	–	1.36548	1.36342	1.36142	1.35939
[1], x2 = 0.9485	–	–	–	–	1.36268	1.36065	1.35863	1.35667
[2], x2 = 0	854.12	849.98	845.87	841.72	–	–	–	–
[2], x2 = 0.0476	894.32	889.93	885.61	881.21	–	–	–	–
[2], x2 = 0.1	933.32	928.72	924.21	919.56	–	–	–	–
[2], x2 = 0.15	966.19	961.47	956.76	951.94	–	–	–	–
[2], x2 = 0.2	995.76	990.72	985.86	980.83	–	–	–	–
[2], x2 = 0.25	1022.23	1017.01	1012	1006.81	–	–	–	–
[2], x2 = 0.2999	1046.09	1040.82	1035.68	1030.38	–	–	–	–
[2], x2 = 0.3499	1067.85	1062.39	1057.13	1051.7	–	–	–	–
[2], x2 = 0.3999	1087.64	1082.11	1076.69	1071.16	–	–	–	–
[2], x2 = 0.45	1105.84	1100.2	1094.66	1089.02	–	–	–	–
[2], x2 = 0.5	1122.55	1116.79	1111.16	1105.4	–	–	–	–
[2], x2 = 0.5498	1137.88	1132.05	1126.36	1120.47	–	–	–	–
[2], x2 = 0.6	1152.22	1146.28	1140.41	1134.47	–	–	–	–
[2], x2 = 0.6499	1165.5	1159.37	1153.46	1147.45	–	–	–	–
[2], x2 = 0.7001	1177.76	1171.65	1165.58	1159.5	–	–	–	–
[2], x2 = 0.75	1189.19	1183.03	1176.83	1170.74	–	–	–	–
[2], x2 = 0.7995	1199.87	1193.61	1187.3	1181.13	–	–	–	–
[2], x2 = 0.8499	1209.99	1203.62	1197.27	1190.93	–	–	–	–
[2], x2 = 0.8954	1218.66	1212.17	1205.76	1199.34	–	–	–	–
[2], x2 = 0.9485	1228.1	1221.55	1215.06	1208.56	–	–	–	–
